Data taken from ChEMBL document CHEMBL4033761 (ACS Med Chem Lett, 2017).
Values after ≈ are worked out from the molar mass of the structure shown.

Experiments:
[1] = Distribution coefficient, log D of compound at pH 7.4; settings: octanol/water
[2] = Solubility of compound in DMSO
[3] = Fraction unbound in human plasma
[4] = Intrinsic clearance in human liver microsomes
[5] = biological target: hERG (KCNH2) (Homo sapiens, UniProt Q12809); test: in vitro
[6] = Dissociation constant, pKa of the compound by UV absorbance method; format: physicochemical
[7] = Apparent permeability of the compound across apical side to basolateral side in human Caco2 cells; settings: Caco-2
[8] = Dissociation constant, pKa of the compound by potentiometric titretion method

Chain of hERG (KCNH2) (Q12809 whole entry): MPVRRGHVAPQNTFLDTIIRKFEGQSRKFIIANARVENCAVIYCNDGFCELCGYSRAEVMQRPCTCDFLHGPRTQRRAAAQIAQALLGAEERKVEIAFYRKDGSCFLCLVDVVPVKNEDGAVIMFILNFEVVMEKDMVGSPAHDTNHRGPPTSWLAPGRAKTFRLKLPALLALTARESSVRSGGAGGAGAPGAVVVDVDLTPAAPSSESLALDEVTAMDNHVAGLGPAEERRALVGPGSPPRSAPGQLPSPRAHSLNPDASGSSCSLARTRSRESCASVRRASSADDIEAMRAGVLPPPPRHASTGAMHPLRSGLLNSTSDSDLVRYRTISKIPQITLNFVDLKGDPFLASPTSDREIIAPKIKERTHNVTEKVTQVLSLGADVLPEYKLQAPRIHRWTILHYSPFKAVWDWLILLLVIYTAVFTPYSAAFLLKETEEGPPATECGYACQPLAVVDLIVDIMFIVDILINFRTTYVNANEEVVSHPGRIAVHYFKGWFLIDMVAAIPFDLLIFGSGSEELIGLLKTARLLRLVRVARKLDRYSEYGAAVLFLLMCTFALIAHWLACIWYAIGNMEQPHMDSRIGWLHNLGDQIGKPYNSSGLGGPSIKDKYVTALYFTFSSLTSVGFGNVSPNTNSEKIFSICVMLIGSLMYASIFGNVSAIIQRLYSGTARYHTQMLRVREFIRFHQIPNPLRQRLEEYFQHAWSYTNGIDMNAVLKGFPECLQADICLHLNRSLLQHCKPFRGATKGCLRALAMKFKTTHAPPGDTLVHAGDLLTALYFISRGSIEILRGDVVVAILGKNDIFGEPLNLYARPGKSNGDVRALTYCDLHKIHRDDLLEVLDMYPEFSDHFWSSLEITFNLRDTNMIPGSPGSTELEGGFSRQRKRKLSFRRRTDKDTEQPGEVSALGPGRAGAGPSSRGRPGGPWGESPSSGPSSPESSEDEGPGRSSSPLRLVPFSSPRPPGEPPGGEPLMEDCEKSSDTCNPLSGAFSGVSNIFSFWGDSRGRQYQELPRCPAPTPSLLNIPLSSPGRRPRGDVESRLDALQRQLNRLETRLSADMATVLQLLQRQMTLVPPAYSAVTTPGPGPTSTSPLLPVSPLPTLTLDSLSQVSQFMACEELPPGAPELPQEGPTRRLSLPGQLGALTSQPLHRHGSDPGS

Row | logD [1] | solubility [2] | fraction unbound [3] | microsomal CLint ([4]; liver microsomes) | pKa [6] | Papp A→B [7] | microsomal CLint ([4]; microsomes) | pKa [8] | SMILES | inhibition at 11 µM [5]
1 | 1.9 | 89 µM (≈ 24.2 µg/mL) | 0.2 | < 3 µL/min/mg |  |  |  |  | O=S1(=O)N=C(NCc2ccccc2)c2ccccc21 | 2.8%
2 | 0.7 | 512 µM (≈ 108 µg/mL) | 0.83 | < 3 µL/min/mg | 8.9 | 92 ×10⁻⁶ cm/s |  |  | CCN1C(=O)c2ccccc2S1(=N)=O (stereo not drawn) | -4.7%
3 | 0.1 | 947 µM (≈ 199 µg/mL) | 0.41 | < 3 µL/min/mg | 6.9 | 26.8 ×10⁻⁶ cm/s |  |  | CCN=S1(=O)NC(=O)c2ccccc21 (stereo not drawn) | 1.3%
4 | 0.2 | 798 µM (≈ 145 µg/mL) | 0.48 | < 3 µL/min/mg | 11.4 | 7.39 ×10⁻⁶ cm/s |  |  | NC1=NS(=O)(=O)c2ccccc21 | 
5 | -1.1 | 958 µM (≈ 247 µg/mL) | 0.088 | < 3 µL/min/mg | 4.1 | 6.57 ×10⁻⁶ cm/s |  |  | O=C1N=S(=O)(Nc2ccccc2)c2ccccc21 (stereo not drawn) | 5.2%
6 | 1.8 | 946 µM (≈ 258 µg/mL) |  | 19.2 µL/min/mg | 8.7 | 84.7 ×10⁻⁶ cm/s |  |  | N=S1(=O)c2ccccc2C(=O)N1Cc1ccccc1 (stereo not drawn) | -7.4%
7 |  |  | 0.4 | < 3 µL/min/mg | 5.7 |  |  |  | NS1(=O)=NC(=O)c2ccccc21 (stereo not drawn) | 
8 | 0.7 | 971 µM (≈ 204 µg/mL) | 0.56 | < 3 µL/min/mg | 11.7 | 29.3 ×10⁻⁶ cm/s |  |  | CCNC1=NS(=O)(=O)c2ccccc21 | 18.4%
9 |  | < 13 µM |  |  |  | 125 ×10⁻⁶ cm/s |  |  | CCN1C(=O)c2ccccc2S1(=O)=O | 3.6%
10 | 2 | 7 µM (≈ 1.81 µg/mL) | 0.16 | 85.4 µL/min/mg |  |  |  |  | O=S1(=O)N=C(Nc2ccccc2)c2ccccc21 | 11.1%
11 | 0.8 | 869 µM (≈ 237 µg/mL) | 0.12 | < 3 µL/min/mg | 6.5 | 70.7 ×10⁻⁶ cm/s |  |  | O=C1N=S(=O)(NCc2ccccc2)c2ccccc21 (stereo not drawn) | -1.9%
12 | 1.4 | 13 µM (≈ 3.72 µg/mL) | 0.014 | < 3 µL/min/mg | 6.62 | 63 ×10⁻⁶ cm/s |  |  | C[C@H](N[S@]1(=O)=NC(=O)c2ccccc21)c1ccccc1 | 
13 | 1.3 | 578 µM (≈ 149 µg/mL) |  | 93.5 µL/min/mg | 8.3 |  |  |  | N=S1(=O)c2ccccc2C(=O)N1c1ccccc1 (stereo not drawn) | -25.6%
14 | -1.8 | < 0.01 µM |  |  |  |  |  |  | O=C1c2ccccc2S(=O)(=O)N1Cc1ccccc1 | 
15 | 0.8 | 107 µM (≈ 30.6 µg/mL) | 0.089 | < 3 µL/min/mg | 6.55 | 47 ×10⁻⁶ cm/s |  |  | C[C@H](NS1(=O)=NC(=O)c2ccccc21)c1ccccc1 (single isomer, unassigned) | 
16 | < -0.1 | 838 µM (≈ 154 µg/mL) | 0.37 |  |  | < 0.75 ×10⁻⁶ cm/s | < 3 µL/min/mg | 3.1 | O=C1NS(=O)(=O)c2ccccc21 [SACCHARIN] | 
